Results from patent US11311538B2, “Compositions and methods for targeting cancers” (YALE UNIVERSITY, priority 2018, dated 2022).

What was measured:
[1] = tested on: shFH-expressing HEK293FT tumor xenografts; test: Tumor growth delay assay, shFH HEK293FT xenografts; assay type: in vivo, mouse
Text: In vivo efficacy studies: HEK293FT xenografts. Female athymic nu/nu mice (Hsd:Athymic Nude-Foxnlnu, Envigo) were used for all in vivo xenograft studies. Mice were quarantined for at least 1 week before experimental manipulation. Tumors were formed using shRNA-expressing versions of the tumorigenic human embryonic kidney cell-derived line, HEK293FT. HEK293FT is a subline of HEK293 cells that has been transformed by expression of SV40 Large T-antigen. […], or shCTRL (non-targeted control) expressing HEK293FT cells were implanted subcutaneously (5×10^6 cells in 0.1 cc PBS) in the right flank of nude mice. Two efficacy studies were conducted. In one, mice were randomized into treatment and non-treated groups (10 mice/group) at day 3, with treatment initiation 4 days post implant. In a second independent in vivo efficacy study, mice were injected as above with 10 mice per group, and treatment was started only once the tumor volumes reached […]. For both studies, mice were visually observed daily and tumors were measured three times per week by calipers to determine tumor volume using the formula: Volume=L×W×W×0.532. Mice were fed with a grain based rodent diet containing Doxycycline at 200 mg/kg (Bioserv, Catalog #S3888). BMN-673 was solubilized in DMSO and diluted with PBS containing 10% dimethylacetamide (Sigma-Aldrich) and 6% Solutol (Sigma). BMN-673 (0.5 mg/kg, 0.2 cc), or vehicle (0.2 cc) was administered by oral gavage once daily for the duration of the experiment. Mean (geometric) tumor volume (mm^3) was plotted over time to monitor tumor growth. P-values were determined by ANOVA with repeated measures. In vivo efficacy studies: UOK 262 xenografts. Female athymic nu/nu mice (Hsd:Athymic Nude-Foxnlnu, Envigo) were used for all in vivo xenograft studies. Mice were quarantined for at least 1 week before experimental manipulation. UOK 262 cells were implanted subcutaneously using 5×10^6 cells in 0.1 cc PBS mixed with 0.1 cc of Corning Matrigel Matrix (Cat. No. 354234) per animal. Mice were randomized at day 3 day into two groups (n=10/group). […]

[2] = LC/MS analysis of intratumoral BMN-673; assay type: in vivo, mouse; conditions: 24 h after single gavage dose of 1 or 10 mg/kg, LC/MS (FIG. 4J)
Text: In vivo efficacy studies: HEK293FT xenografts. Female athymic nu/nu mice (Hsd:Athymic Nude-Foxnlnu, Envigo) were used for all in vivo xenograft studies. Mice were quarantined for at least 1 week before experimental manipulation. Tumors were formed using shRNA-expressing versions of the tumorigenic human embryonic kidney cell-derived line, HEK293FT. HEK293FT is a subline of HEK293 cells that has been transformed by expression of SV40 Large T-antigen. […], or shCTRL (non-targeted control) expressing HEK293FT cells were implanted subcutaneously (5×10^6 cells in 0.1 cc PBS) in the right flank of nude mice. Two efficacy studies were conducted. In one, mice were randomized into treatment and non-treated groups (10 mice/group) at day 3, with treatment initiation 4 days post implant. […] For both studies, mice were visually observed daily and tumors were measured three times per week by calipers to determine tumor volume using the formula: Volume=L×W×W×0.532. […] P-values were determined by ANOVA with repeated measures. […] The concentrations of BMN-673 in tumor samples were determined using liquid chromatography with tandem mass spectrometry (LC-MS/MS). […] BMN673 was monitored using the positive electrospray ionization mode at the most sensitive and specific mass transition, m/z 381.0>228.8. […]

## Cn1ncnc1[C@H]1c2n[nH]c(=O)c3cc(F)cc(c23)N[C@@H]1c1ccc(F)cc1 [BMN-673, BMN-673 (Talazoparib)]
[1]; treatment after tumors reached 95-150 mm^3, 0.5 mg/kg oral gavage once daily (FIG. 4H)
  tumor growth vs vehicle, FH-deficient tumors: inhibited the growth
[1]; treatment beginning four days after implantation, 0.5 mg/kg oral gavage once daily (FIG. 4E)
  tumor growth vs vehicle, shFH tumors: robust suppression of tumor growth
[1]; two separate sets of in vivo efficacy studies, 0.5 mg/kg oral gavage once daily
  growth of FH-deficient tumors: significantly inhibited the growth
[2]
  intra-tumoral BMN-673 levels, shSDHB vs shCTRL HEK293FT tumors: no significant difference
